Among the data in patent US20220213052A1, “INHIBITORS OF RNA-BINDING PROTEINS, COMPOSITIONS THEREOF, AND THERAPEUTIC USES THEROF” (The University of North Carolina at Chapel Hill, priority 2019, published 2022) are Ki and IC50 values, retold here.

For assay [1], the target named is T1, full-length human HuR protein (Homo sapiens, UniProt Q15717).
T1 construct: full-length human HuR protein was produced by the KU COBRE-PSF Protein Purification Group; made in house
Description: FP assay of HuR-Msi1 ARE binding inhibition. To be noted: HuR-Msi1 ARE interaction; read-out: HuR Ki via FP assay. An excerpt: A fluorescence polarization (FP)-based binding assay was utilized to assess the inhibition of HuR protein interaction with the ARE site of Msi1 mRNA (“HuR-Msi1^ARE”) by compounds of interest. Briefly, full-length human HuR protein was produced by the KU COBRE-PSF Protein Purification Group and Bcl2, Msi1 and XIAP mRNA sequences (16 nt) were designed based on literature precedent^23,24,31,32. Fluorescein labeled RNAs were purchased from Dharmacon with the following sequences: Msi1 RNA: 5′-[…]-3′-fluorescein; Bcl-2 RNA: 5′-[…]-3′-fluorescein; XIAP RNA: 5′-[…] UGUC-3′-fluorescein, and a 16-nt degenerative RNA with 3′-fluorescein label was used as a negative control.
(§1) With the FP assay of HuR-Msi1ARE binding, the inhibition of the HuR-Msi1ARE interaction by various compounds of the present technology was assessed. Similar FP assays for Musashi 2 (Msi2) and for RNA-binding protein Lin-28 homolog B (LIN28B) were also performed on various compounds of the present technology. The results of such assays for HuR are provided in Table 1 alongside the compound structures as well as ID numbers for ease of reference; the results of such assays for Msi1, Msi2, and LIN28B are provided in Table 2.

Assay [2] concerns triple-negative breast cancer cell line MDA-MB-231. Nature of the assay: Cytotoxicity assay (WST-8), MDA-MB-231. The assay is classed as cell-based. The conditions noted are these: Homo sapiens, 96 h incubation. As for the experimental part: The cytotoxicity of various compounds of the present technology in several cancer cell lines (pancreatic cancer cell line MIAPaCa-2, triple-negative breast cancer cell line MDA-MB-231, and colon cancer cell lines HCT116, HCT116 β/W, and RKO) was assessed by a cytotoxicity assay. Cells were seeded in 96-well culture plates (3,000-5,000 cells/well) and treated with titrated compounds in triplicate. After 96 h incubation, cell growth medium was removed and proliferation reagent WST-8 (Sigma) was added to each well and incubated at 37° C. for 1-3 h. Absorbance was then measured with a plate reader at 450 nm with correction at 650 nm. The results were expressed as the percentage of absorbance of treated wells versus that of vehicle control. IC50, the drug concentration causing 50% growth inhibition, was calculated via sigmoid curve fitting using GraphPad Prism 5.0. The results for those compounds tested against MIAPaCa-2 and MDA-MB-231 are provided in Table 1; the results for those compounds tested against colon cancer cell lines HCT116, HCT116 β/W, and RKO are provided in Table 3.

Assay [3] concerns the target Msi1 (Homo sapiens, UniProt O43347). Description: Msi1 FP assay. The assay is classed as binding. Here is the method: as §1
Assay [4] concerns the target Musashi 2 (Msi2) (Homo sapiens, UniProt Q96DH6). Nature of the assay: Msi2 FP assay. The assay is classed as binding. Here is the method: as §1
For assay [5], the target named is T2, RNA-binding protein Lin-28 homolog B (LIN28B) (Homo sapiens, UniProt Q6ZN17).
T2 sequence (Q6ZN17 1-250): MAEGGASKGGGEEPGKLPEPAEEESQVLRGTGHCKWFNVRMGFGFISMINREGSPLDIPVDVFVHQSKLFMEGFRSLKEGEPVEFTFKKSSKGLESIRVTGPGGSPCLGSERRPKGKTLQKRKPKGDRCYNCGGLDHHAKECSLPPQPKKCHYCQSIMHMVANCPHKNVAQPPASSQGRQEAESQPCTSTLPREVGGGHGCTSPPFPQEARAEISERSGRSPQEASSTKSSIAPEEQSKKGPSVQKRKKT
Nature of the assay: LIN28B FP assay. As for the experimental part: as §1

The mark [6] stands for this setting: cell without (RRM1) mark, read-out: Msi2 (Ki).
Setting [7] is: cell marked (RRM1), read-out: Msi2 (Ki) (RRM1).

Like-named read-outs stand apart in the source and are kept apart here.

Msi1, sequence (O43347 whole entry, species assumed): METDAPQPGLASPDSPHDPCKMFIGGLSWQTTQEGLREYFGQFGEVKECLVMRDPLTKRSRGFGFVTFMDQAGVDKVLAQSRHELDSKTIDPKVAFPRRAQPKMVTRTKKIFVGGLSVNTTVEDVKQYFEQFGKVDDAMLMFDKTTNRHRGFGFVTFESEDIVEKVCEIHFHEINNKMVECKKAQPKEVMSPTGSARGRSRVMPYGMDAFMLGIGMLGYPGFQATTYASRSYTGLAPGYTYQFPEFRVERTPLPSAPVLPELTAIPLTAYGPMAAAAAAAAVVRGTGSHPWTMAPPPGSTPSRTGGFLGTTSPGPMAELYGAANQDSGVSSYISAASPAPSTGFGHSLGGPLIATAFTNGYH
Musashi 2 (Msi2), sequence (Q96DH6 whole entry, species assumed): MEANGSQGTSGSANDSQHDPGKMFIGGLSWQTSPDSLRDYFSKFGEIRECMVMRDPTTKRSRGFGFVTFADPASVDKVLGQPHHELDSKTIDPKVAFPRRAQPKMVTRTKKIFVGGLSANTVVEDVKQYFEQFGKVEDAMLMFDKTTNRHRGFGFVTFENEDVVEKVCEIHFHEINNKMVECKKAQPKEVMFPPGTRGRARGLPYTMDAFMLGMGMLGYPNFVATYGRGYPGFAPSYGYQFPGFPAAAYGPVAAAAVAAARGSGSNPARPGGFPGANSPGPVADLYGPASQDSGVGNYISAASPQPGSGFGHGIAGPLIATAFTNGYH
T1 sequence (Q15717 whole entry): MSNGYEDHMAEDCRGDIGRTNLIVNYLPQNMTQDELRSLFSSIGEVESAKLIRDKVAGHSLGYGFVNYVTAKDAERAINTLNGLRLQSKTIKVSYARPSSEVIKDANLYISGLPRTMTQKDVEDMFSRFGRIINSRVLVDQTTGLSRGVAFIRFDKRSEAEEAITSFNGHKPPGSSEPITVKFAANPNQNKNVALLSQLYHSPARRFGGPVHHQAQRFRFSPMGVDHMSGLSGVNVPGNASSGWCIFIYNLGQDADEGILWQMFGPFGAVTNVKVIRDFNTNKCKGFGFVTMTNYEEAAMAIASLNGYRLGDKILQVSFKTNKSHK

On to `CC(C)(C)c1ccc(C(=O)Nc2ccc3sc(CCC(=O)O)cc3c2)cc1` [KH-22A, 3-(5-(4-(tert-Butyl)benzamido)benzo[b]thiophen-2-yl)propanoic acid], for which the Ki was 3.83 µM in assay [1], more than 20 µM in assay [3], more than 20 µM in assay [4] (setting [6]) and more than 20 µM in assay [5]. Further, half-maximal inhibition in assay [2] (IC50) was put at 19.8 µM.

As to `CC(C)(C)c1ccc(C(=O)Nc2ccc3sc(CCC(N)=O)cc3c2)cc1` [KH-22C, N-(2-(3-amino-3-oxopropyl)benzo[b]thiophen-5-yl)-4-(tert-butyl)benzamide], the inhibition constant (Ki) is 7 µM in assay [1], more than 20 µM in assay [3], more than 20 µM in assay [4] (setting [6]) and more than 20 µM in assay [5]. The IC50 in assay [2] stood at 2.87 µM.

As to `CC(C)(C)c1ccc(C(=O)Nc2ccc3sc(CCC(=O)NN)cc3c2)cc1` [KH-22E, 4-(tert-butyl)-N-(2-(3-hydrazinyl-3-oxopropyl)benzo[b]thiophen-5-yl)benzamide], the Ki in assay [1] was 1.06 µM; in assay [3], more than 20 µM; in assay [4] (setting [6]) it was more than 20 µM; in assay [5], more than 20 µM. The same compound had an IC50 in assay [2] of 8.56 µM.

On to `Cc1ccc(C(=O)Nc2ccc3sc(CCC(=O)NO)cc3c2)cc1` [KH-27, N-(2-(3-(hydroxyamino)-3-oxopropyl)benzo[b]thiophen-5-yl)-4-methylbenzamide], for which the inhibition constant (Ki) in assay [1] is 3.72 µM; in assay [3] it was more than 20 µM; in assay [4] (setting [6]), more than 20 µM; in assay [5] it was more than 20 µM. The compound also had an IC50 in assay [2] of 9.34 µM.

`Cc1ccc(C(=O)Nc2ccc3sc(CCC(=O)O)cc3c2)cc1` [KH-27A, 3-(5-(4-Methylbenzamido)benzo[b]thiophen-2-yl)propanoic acid]: the Ki in assay [1], in assay [3], in assay [4] (setting [6]) and in assay [5] was more than 20 µM throughout. The IC50 in assay [2] is more than 100 µM.

In the case of `O=C(CCc1cc2cc(NC(=O)c3ccc(C(F)(F)F)cc3)ccc2s1)NO` [KH-29, N-(2-(3-(hydroxyamino)-3-oxopropyl)benzo[b]thiophen-5-yl)-4-(trifluoromethyl)benzamide], the Ki in assay [1] is 2.51 µM; in assay [3], more than 20 µM; in assay [4] (setting [6]) it was more than 20 µM; in assay [5], more than 20 µM. The IC50 in assay [2] was 12.4 µM.

For the compound `NNC(=O)CCc1cc2cc(NC(=O)c3ccc(C(F)(F)F)cc3)ccc2s1` [KH-29E], the Ki in assay [1] is 3.32 µM; in assay [3], more than 20 µM; in assay [4] (setting [6]), more than 20 µM; in assay [5], more than 20 µM. Also, in assay [2], the IC50 was 71.2 µM.

Turning to `CC(C)(C)c1cccc(C(=O)Nc2ccc3sc(CCC(=O)NO)cc3c2)c1` [KH-30, 3-(tert-Butyl)-N-(2-(3-(hydroxyamino)-3-oxopropyl)benzo[b]thiophen-5-yl)benzamide], the Ki is 4.98 µM in assay [1], more than 20 µM in assay [3], more than 20 µM in assay [4] (setting [6]) and more than 20 µM in assay [5]. Further, half-maximal inhibition in assay [2] (IC50) required 5.51 µM.

`CC(C)(C)c1cccc(C(=O)Nc2ccc3sc(CCC(=O)O)cc3c2)c1` [KH-30A, 3-(5-(3-(tert-butyl)benzamido)benzo[b]thiophen-2-yl)propanoic acid]: the Ki in assay [1], in assay [3], in assay [4] (setting [6]) and in assay [5] was more than 20 µM throughout. The half-inhibitory concentration (IC50) in assay [2] is more than 100 µM.

As to `CC(C)(C)c1cccc(C(=O)Nc2ccc3sc(CCC(=O)NN)cc3c2)c1` [KH-30E], the Ki in assay [1] is 4.19 µM; in assay [3], more than 20 µM; in assay [4] (setting [6]), more than 20 µM; in assay [5] it was more than 20 µM. In assay [2], this compound came in with an IC50 of 22.7 µM.

`CC(C)(C)c1cccc(C(=O)Nc2ccc3sc(/C=C/C(=O)NO)cc3c2)c1` [KH-31, (E)-3-(tert-Butyl)-N-(2-(3-(hydroxyamino)-3-oxoprop-1-en-1-yl)benzo[b]thiophen-5-yl)benzamide]: the Ki in assay [1] was 0.47 µM; in assay [3], 3.89 µM; in assay [4] (setting [7]) it was 1.3 µM; in assay [5], 3 µM. The compound also returned an IC50 in assay [2] of 9.74 µM.

As to `CC(C)(C)c1cccc(C(=O)Nc2ccc3sc(/C=C/C(=O)O)cc3c2)c1` [KH-31A, (E)-3-(5-(3-(tert-Butyl)benzamido)benzo[b]thiophen-2-yl)acrylic acid], the Ki in assay [1] was 2.27 µM; in assay [3] it was 4.6 µM; in assay [4] (setting [7]), 1.36 µM; in assay [5] it was more than 20 µM. Moreover, inhibition in assay [2] was half-maximal at 95.3 µM (IC50).

Take `O=C(O)/C=C/c1cc2cc(NC(=O)c3ccc(C(F)(F)F)cc3)ccc2s1` [KH-32A, (E)-3-(5-(4-(Trifluoromethyl)benzamido)benzo[b]thiophen-2-yl)acrylic acid]: the Ki in assay [1] was 1.6 µM; in assay [3], 4.36 µM; in assay [4] (setting [7]), 1.68 µM; in assay [5], more than 20 µM. In assay [2], this compound gave a half-maximal inhibitory concentration (IC50) of more than 100 µM.

Turning to `O=C(/C=C/c1cc2cc(NC(=O)c3ccc(C(F)(F)F)cc3)ccc2s1)NO` [KH-32], the Ki in assay [1] was 0.51 µM; in assay [3], 4.87 µM; in assay [4] (setting [7]), 2.64 µM; in assay [5], more than 20 µM. The compound also showed a concentration for half-maximal inhibition (IC50) in assay [2] of 2.62 µM.

As for `O=C(O)/C=C/c1cc2cc(NC(=O)c3ccc(S(F)(F)(F)(F)F)cc3)ccc2s1` [KH-33A, (E)-3-(5-(4-(pentafluoro-λ^6-sulfanyl)benzamido)benzo[b]thiophen-2-yl)acrylic acid], the Ki in assay [1] was 1.2 µM; in assay [3] it was 2.63 µM; in assay [4] (setting [7]), 1.03 µM; in assay [5], more than 20 µM. In assay [2], this compound came in with an IC50 of 50.1 µM.

As for `O=C(CCc1cc2cc(NC(=O)c3ccc(S(F)(F)(F)(F)F)cc3)ccc2s1)NO` [KH-34, N-(2-(3-(Hydroxyamino)-3-oxopropyl)benzo[b]thiophen-5-yl)-4-(pentafluoro-X^6-sulfanyl)benzamide], the Ki in assay [1] was 1.53 µM; in assay [3], more than 20 µM; in assay [4] (setting [6]) it was more than 20 µM; in assay [5] it was more than 20 µM. Moreover, the IC50 in assay [2] came out at 3.97 µM.

On to `O=C(O)CCc1cc2cc(NC(=O)c3ccc(S(F)(F)(F)(F)F)cc3)ccc2s1` [KH-34A, 3-(5-(4-(pentafluoro-λ^6-sulfanyl)benzamido)benzo[b]thiophen-2-yl)propanoic acid], for which the Ki in assay [1] was 5.8 µM; in assay [3] it was more than 20 µM; in assay [4] (setting [6]) it was more than 20 µM; in assay [5], more than 20 µM. Besides, in assay [2], the IC50 came out at 48 µM.

Consider `CC(C)c1ccc(C(=O)Nc2ccc3sc(CCC(=O)O)cc3c2)cc1` [KH-37A, 3-(5-(4-Isopropylbenzamido)benzo[b]thiophen-2-yl)propanoic acid], for which the Ki in assay [1], in assay [3], in assay [4] (setting [6]) and in assay [5] was more than 20 µM in each case. The same compound returned an IC50 in assay [2] of more than 100 µM.

Regarding `CC(C)c1ccc(C(=O)Nc2ccc3sc(CCC(=O)NN)cc3c2)cc1` [KH-37E], the Ki in assay [1] is 5.18 µM; in assay [3], more than 20 µM; in assay [4] (setting [6]), more than 20 µM; in assay [5], more than 20 µM. Further, the IC50 in assay [2] is more than 100 µM.

`CN(C)c1ccc(C(=O)Nc2ccc3sc(CCC(=O)O)cc3c2)cc1` [KH-38A, 3-(5-(4-(Dimethylamino)benzamido)benzo[b]thiophen-2-yl)propanoic acid]: the Ki in assay [1], in assay [3], in assay [4] (setting [6]) and in assay [5] was more than 20 µM in each case. The compound further had a half-inhibitory concentration (IC50) in assay [2] of more than 100 µM.

Turning to `CN(C)c1ccc(C(=O)Nc2ccc3sc(CCC(=O)NN)cc3c2)cc1` [KH-38E], the Ki was 3.56 µM in assay [1], more than 20 µM in assay [3], more than 20 µM in assay [4] (setting [6]) and more than 20 µM in assay [5]. In assay [2], this compound displayed an IC50 of 57.6 µM.
